Legend:
[1] = biological target: T1, TNKS2 (Homo sapiens, UniProt Q9H2K2); assay: Modified TNKS2 Assay 2 (auto-parsylation, [3H]-NAD+ SPA); type: biochemical; details: 6 nM TNKS2, 96 well
T1 sequence (Q9H2K2 1-1166): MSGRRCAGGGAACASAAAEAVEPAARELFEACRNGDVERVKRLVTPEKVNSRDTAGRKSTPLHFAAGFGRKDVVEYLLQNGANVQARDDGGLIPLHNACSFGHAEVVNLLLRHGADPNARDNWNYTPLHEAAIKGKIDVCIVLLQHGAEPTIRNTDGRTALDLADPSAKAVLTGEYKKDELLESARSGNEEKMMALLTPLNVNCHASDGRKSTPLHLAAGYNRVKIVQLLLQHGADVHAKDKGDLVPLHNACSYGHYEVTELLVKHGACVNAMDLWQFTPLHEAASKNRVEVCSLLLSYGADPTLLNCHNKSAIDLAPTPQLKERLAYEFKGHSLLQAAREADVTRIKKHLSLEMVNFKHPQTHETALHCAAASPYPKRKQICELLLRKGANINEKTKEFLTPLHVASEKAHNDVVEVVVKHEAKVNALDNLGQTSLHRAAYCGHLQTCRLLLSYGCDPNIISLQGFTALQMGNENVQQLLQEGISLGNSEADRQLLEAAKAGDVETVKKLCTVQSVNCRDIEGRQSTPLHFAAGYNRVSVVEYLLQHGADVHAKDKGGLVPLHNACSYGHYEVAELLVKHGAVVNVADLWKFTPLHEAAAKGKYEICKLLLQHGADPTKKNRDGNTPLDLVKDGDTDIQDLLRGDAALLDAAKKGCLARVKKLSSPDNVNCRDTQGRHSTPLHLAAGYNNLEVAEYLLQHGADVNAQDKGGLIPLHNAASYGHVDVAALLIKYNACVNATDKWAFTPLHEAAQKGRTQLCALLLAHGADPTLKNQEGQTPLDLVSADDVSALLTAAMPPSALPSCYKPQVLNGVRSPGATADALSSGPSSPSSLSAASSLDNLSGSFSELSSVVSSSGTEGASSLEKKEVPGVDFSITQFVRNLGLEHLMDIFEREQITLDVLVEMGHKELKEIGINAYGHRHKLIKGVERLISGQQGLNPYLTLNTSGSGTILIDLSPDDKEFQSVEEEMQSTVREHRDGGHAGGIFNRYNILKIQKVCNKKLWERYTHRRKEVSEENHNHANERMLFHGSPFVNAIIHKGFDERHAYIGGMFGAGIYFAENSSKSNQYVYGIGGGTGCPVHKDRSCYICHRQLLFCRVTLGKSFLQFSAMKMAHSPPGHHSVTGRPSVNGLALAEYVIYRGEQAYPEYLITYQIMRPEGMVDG

[2] = test system: wildtype Wnt signaling cascade; assay: HEK293 TOP Assay (Super TopFlash luciferase reporter, Wnt-3a stimulated); type: cell-based; details: Homo sapiens, HEK293, 16 h, HEK293 TOP reporter cell line, Wnt-3a at EC50, 16 hours incubation, compound dilution series 50 μM to 15 nM
Summary of the method: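 HEK293 cells stably carrying Super TopFlash (TOP) or FOP reporter, stimulated with recombinant human Wnt-3a (2500–5 ng/ml, two-fold steps). Both lines incubated in parallel with compound from 50 μM to 15 nM (3.16-fold) in CAFTY buffer pH 7.4 with 2 mM Ca2+ and 0.01% BSA; selectivity judged TOP vs FOP.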

Structure (SMILES) | IC50 [1] | IC50 [2]
CCc1nc(C(=O)Nc2ccc(NC(=O)c3ccc(F)cc3Cl)cc2)c(C(=O)NC)[nH]1 [Example 68, N^4-{4-[(2-chloro-4-fluorobenzoyl)amino]phenyl}-2-ethyl-N^5-methyl-1H-imidazole-4,5-dicarboxamide] | > 10000 nM | 2150 nM
COC(=O)c1nc[nH]c1C(=O)Nc1ccc(NC(=O)c2ccc(F)cc2Cl)c(F)c1 [Example 71, methyl 5-({4-[(2-chloro-4-fluorobenzoyl)amino]-3-fluorophenyl}carbamoyl)-1H-imidazole-4-carboxylate] | 110 nM | 340 nM
CN(C)CCNC(=O)c1nc[nH]c1C(=O)Nc1ccc(NC(=O)c2ccc(F)cc2Cl)c(F)c1 [Example 73, N^5-{4-[(2-chloro-4-fluorobenzoyl)amino]-3-fluorophenyl}-N^4-[2-(dimethylamino)ethyl]-1H-imidazole-4,5-dicarboxamide] | 30 nM | 360 nM
CN(C)CCNC(=O)c1nc[nH]c1C(=O)Nc1ccc(NC(=O)c2ccc(F)cc2)c(F)c1 [Example 77, N^4-[2-(dimethylamino)ethyl]-N^5-{3-fluoro-4-[(4-fluorobenzoyl)amino]phenyl}-1H-imidazole-4,5-dicarboxamide] | 1800 nM | 4400 nM
O=C(Nc1ccc(NC(=O)c2[nH]cnc2C(=O)NCCN2CCCCC2)cc1F)c1ccc(F)cc1 [Example 78, N^5-{3-fluoro-4-[(4-fluorobenzoyl)amino]phenyl}-N^4-[2-(piperidin-1-yl)ethyl]-1H-imidazole-4,5-dicarboxamide] | > 10000 nM | 280 nM
CNC(=O)c1nc[nH]c1C(=O)Nc1ccc(NC(=O)c2ccccc2Cl)c(F)c1 [Example 80, N^5-{4-[(2-chlorobenzoyl)amino]-3-fluorophenyl}-N^4-methyl-1H-imidazole-4,5-dicarboxamide] | 700 nM | 820 nM
CN(C)CCNC(=O)c1nc[nH]c1C(=O)Nc1ccc(NC(=O)c2ccccc2Cl)c(F)c1 [Example 81, N^5-{4-[(2-chlorobenzoyl)amino]-3-fluorophenyl}-N^4-[2-(dimethylamino)ethyl]-1H-imidazole-4,5-dicarboxamide] | 160 nM | 660 nM
Cc1cc(NC(=O)c2[nH]cnc2C(=O)NCCN(C)C)ccc1NC(=O)c1ccc(F)cc1Cl [Example 84, N^5-{4-[(2-chloro-4-fluorobenzoyl)amino]-3-methylphenyl}-N^4-[2-(dimethylamino)ethyl]-1H-imidazole-4,5-dicarboxamide] | 260 nM | 620 nM
Cc1cc(NC(=O)c2[nH]cnc2C(=O)NCCN2CCCCC2)ccc1NC(=O)c1ccc(F)cc1Cl [Example 85, N^5-{4-[(2-chloro-4-fluorobenzoyl)amino]-3-methylphenyl}-N^4-[2-(piperidin-1-yl)ethyl]-1H-imidazole-4,5-dicarboxamide] | 10 nM | 160 nM
CCNC(=O)c1nc[nH]c1C(=O)Nc1ccc(NC(=O)c2cccc(OC)c2Cl)cc1 [Example 260, N^5-{4-[(2-chloro-3-methoxybenzoyl)amino]phenyl}-N^4-ethyl-1H-imidazole-4,5-dicarboxamide] | 6200 nM | 2100 nM
CCNC(=O)c1nc[nH]c1C(=O)Nc1ccc(NC(=O)c2ncccc2Cl)cc1 [Example 261, N^5-(4-{[(3-chloropyridin-2-yl)carbonyl]amino}phenyl)-N^4-ethyl-1H-imidazole-4,5-dicarboxamide] | 210 nM | 22200 nM
CCNC(=O)c1nc[nH]c1C(=O)Nc1ccc(NC(=O)c2cnccc2Cl)cc1 [Example 263, N^5-(4-{[(4-chloropyridin-3-yl)carbonyl]amino}phenyl)-N^4-ethyl-1H-imidazole-4,5-dicarboxamide] | 500 nM | 360 nM
CCNC(=O)c1nc[nH]c1C(=O)Nc1ccc(NC(=O)c2cc(OC)ccc2Cl)cc1 [Example 264, N^5-{4-[(2-chloro-5-methoxybenzoyl)amino]phenyl}-N^4-ethyl-1H-imidazole-4,5-dicarboxamide] | 480 nM | 1600 nM
C[C@@H]1CCCCN1CCNC(=O)c1[nH]cnc1C(=O)Nc1ccc(NC(=O)c2ccc(F)cc2Cl)cc1 [Example 267, N^4-{4-[(2-chloro-4-fluorobenzoyl)amino]phenyl}-N^5-{2-[(2R)-2-methylpiperidin-1-yl]ethyl}-1H-imidazole-4,5-dicarboxamide] | 3 nM | 20 nM
C[C@@H]1CCCN(CCNC(=O)c2[nH]cnc2C(=O)Nc2ccc(NC(=O)c3ccc(F)cc3Cl)cc2)C1 [Example 278, N^4-{4-[(2-chloro-4-fluorobenzoyl)amino]phenyl}-N^5-{2-[(3R)-3-methylpiperidin-1-yl]ethyl}-1H-imidazole-4,5-dicarboxamide] | 5 nM | 90 nM
O=C(Nc1ccc(NC(=O)c2nc[nH]c2C(=O)NCCN2CCC(F)(F)C2)cc1)c1ccc(F)cc1Cl [Example 279, N^4-{4-[(2-chloro-4-fluorobenzoyl)amino]phenyl}-N^5-[2-(3,3-difluoropyrrolidin-1-yl)ethyl]-1H-imidazole-4,5-dicarboxamide] | 20 nM | 910 nM
O=C(Nc1ccc(NC(=O)c2nc[nH]c2C(=O)N[C@H]2CCNC2)cc1)c1ccc(F)cc1Cl [Example 281, N^4-{4-[(2-chloro-4-fluorobenzoyl)amino]phenyl}-N^5-[(3S)-pyrrolidin-3-yl]-1H-imidazole-4,5-dicarboxamide] | 70 nM | 1200 nM
NCCNC(=O)c1[nH]cnc1C(=O)Nc1ccc(NC(=O)c2ccc(F)cc2Cl)cc1 [Example 290, N^5-(2-aminoethyl)-N^4-{4-[(2-chloro-4-fluorobenzoyl)amino]phenyl}-1H-imidazole-4,5-dicarboxamide] | 110 nM | 710 nM
O=C(Nc1ccc(NC(=O)c2nc[nH]c2C(=O)NCCN2CCCCC2)cc1OC(F)(F)F)c1ccc(F)cc1Cl [Example 293, N^4-{4-[(2-chloro-4-fluorobenzoyl)amino]-3-(trifluoromethoxy)phenyl}-N^5-[2-(piperidin-1-yl)ethyl]-1H-imidazole-4,5-dicarboxamide] | 110 nM | 570 nM
CC(CN1CCOCC1)NC(=O)c1[nH]cnc1C(=O)Nc1ccc(NC(=O)c2ccc(F)cc2)cc1 (stereo not shown) [Example 294, N^4-{4-[(4-fluorobenzoyl)amino]phenyl}-N^5-[1-(morpholin-4-yl)propan-2-yl]-1H-imidazole-4,5-dicarboxamide] | 150 nM | 1550 nM
CN1CCCC(CNC(=O)c2[nH]cnc2C(=O)Nc2ccc(NC(=O)c3ccc(F)cc3Cl)cc2)C1 (stereo not shown) [Example 298, N^4-{4-[(2-chloro-4-fluorobenzoyl)amino]phenyl}-N^5-[(1-methylpiperidin-3-yl)methyl]-1H-imidazole-4,5-dicarboxamide] | 60 nM | 300 nM
O=C(Nc1ccc(NC(=O)c2ocnc2C(=O)NCCN2CCCCC2)cc1)c1ccc(F)cc1Cl [Example 303, N^5-{4-[(2-chloro-4-fluorobenzoyl)amino]phenyl}-N^4-[2-(piperidin-1-yl)ethyl]-1,3-oxazole-4,5-dicarboxamide] | 10 nM | 140 nM
CNC(=O)c1nc[nH]c1C(=O)Nc1ccc(NC(=O)c2cc(Cl)ccc2Cl)cc1 [Example 309, N^5-{4-[(2,5-dichlorobenzoyl)amino]phenyl}-N^4-methyl-1H-imidazole-4,5-dicarboxamide] | 340 nM | 240 nM

— patent US9884063B2, “Amido-substituted azole compounds” (Bayer Pharma Aktiengesellschaft, priority 2014, dated 2018)
